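Tested at 5 concentrations; 48 h exposure; 96-well plates; endpoints linearly interpolated, else capped at highest concentration. GI50 is the concentration that inhibits growth by half.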 Calls of active or inactive are those of the source. Cut-off read from the data, not from the text of the source: active = GI50 up to about 1.1 µM and inactive = higher.
Assays:
Assay in all cases: DTP human tumour cell line panel, 48 h
[1] = system: MDA-MB-231
[2] = system: Malme-3M
[3] = system: Hs-578T
[4] = system: SK-MEL-5
[5] = system: OVCAR-3
[6] = system: A549
[7] = system: U-251
[8] = system: CAKI-1
[9] = system: NCI-H460
[10] = system: NCI-H226
[11] = system: A498
[12] = system: TK-10
[13] = system: SK-OV-3
[14] = system: SN12C
[15] = system: CCRF-CEM
[16] = system: NCI/ADR-RES
[17] = system: HCC 2998
[18] = system: K562
[19] = system: OVCAR-8

SMILES	GI50 [1]	GI50 [2]	GI50 [3]	GI50 [4]	GI50 [5]	GI50 [6]	GI50 [7]	GI50 [8]	GI50 [9]	GI50 [10]	GI50 [11]	GI50 [12]	GI50 [13]	GI50 [14]	GI50 [15]	GI50 [16]	GI50 [17]	GI50 [18]	GI50 [19]
CCN(CC)CCN(C)c1ccc(CO)c2c1c(=O)c1ccccc1[s+]2[O-] (stereo unspecified)	2.84 µM (inactive)	11.9 µM (inactive)	12 µM (inactive)	2.45 µM (inactive)	1.95 µM (inactive)	11.3 µM (inactive)	1.69 µM (inactive)	13.2 µM (inactive)	4.62 µM (inactive)	17.7 µM (inactive)	10.7 µM (inactive)	16.9 µM (inactive)	16.1 µM (inactive)	15.2 µM (inactive)	3.78 µM (inactive)	1.74 µM (inactive)	1.43 µM (inactive)	3.83 µM (inactive)	1.8 µM (inactive)
C/C(=N\NC(=S)N1CCCCC1)c1nc2cccnc2[nH]1	3.81 µM (inactive)	27.9 µM (inactive)	38.8 µM (inactive)	4.03 µM (inactive)	5.15 µM (inactive)	6.7 µM (inactive)	9.46 µM (inactive)	13.2 µM (inactive)	4.03 µM (inactive)	8.53 µM (inactive)	17.2 µM (inactive)	21.3 µM (inactive)	41.6 µM (inactive)	19.7 µM (inactive)	2.79 µM (inactive)	3.83 µM (inactive)	20.2 µM (inactive)	6.9 µM (inactive)	4.19 µM (inactive)
CCCCCCCCCCCCCCCCOCC(CCl)OP(=O)(O)OP(=O)(O)OCC1OC(n2ccc(N)nc2=O)C(O)C1O (stereo unspecified)	> 100 µM (inactive)	> 100 µM (inactive)	> 100 µM (inactive)	> 100 µM (inactive)	> 100 µM (inactive)	> 100 µM (inactive)	> 100 µM (inactive)	> 100 µM (inactive)	> 100 µM (inactive)	> 100 µM (inactive)	> 100 µM (inactive)	> 100 µM (inactive)	> 100 µM (inactive)	> 100 µM (inactive)	> 100 µM (inactive)	> 100 µM (inactive)	> 100 µM (inactive)	> 100 µM (inactive)	> 100 µM (inactive)
COc1cc(-c2oc3c(OC)c(O)cc(O)c3c(=O)c2OC)ccc1O	7.76 µM (inactive)	> 47.8 µM (inactive)	1.84 µM (inactive)	6.31 µM (inactive)	2.68 µM (inactive)	7.29 µM (inactive)	3.66 µM (inactive)	3.13 µM (inactive)	6.95 µM (inactive)	12.9 µM (inactive)	4.2 µM (inactive)	12.4 µM (inactive)	1.55 µM (inactive)	13.1 µM (inactive)	3.12 µM (inactive)	10.8 µM (inactive)	10.9 µM (inactive)	5.12 µM (inactive)	8.17 µM (inactive)
Cc1c(-c2ccccc2)c(C#N)c2nnn(-c3ccc(Cl)cc3)c(=O)n12	36.3 µM (inactive)	81.3 µM (inactive)	71.4 µM (inactive)	1.14 µM (inactive)	16.4 µM (inactive)	21.5 µM (inactive)	13.8 µM (inactive)	13.3 µM (inactive)	4.83 µM (inactive)	66.7 µM (inactive)	68.7 µM (inactive)	77.1 µM (inactive)	89.7 µM (inactive)	35.2 µM (inactive)	18.3 µM (inactive)	17.6 µM (inactive)	10.6 µM (inactive)	0.668 µM (active)	25.3 µM (inactive)
COC1=C(OC)C(=O)C(Sc2ccc3ccccc3c2)=CC1=O	11.4 µM (inactive)	11.9 µM (inactive)	14.9 µM (inactive)	3.1 µM (inactive)	4.63 µM (inactive)	12 µM (inactive)	4.89 µM (inactive)	14.7 µM (inactive)	7.67 µM (inactive)	6.03 µM (inactive)	14.7 µM (inactive)	12.2 µM (inactive)	16.1 µM (inactive)	7.87 µM (inactive)	1.29 µM (inactive)	14.7 µM (inactive)	11.6 µM (inactive)	2.99 µM (inactive)	10.4 µM (inactive)
CC(C)(C)[Si](C)(C)OCC1CCC(n2cnc3c(NC(=O)c4ccccc4)ncnc32)O1 (stereo unspecified)	20.7 µM (inactive)	19.9 µM (inactive)	14 µM (inactive)	11.5 µM (inactive)	14 µM (inactive)	19 µM (inactive)	18.2 µM (inactive)	21.4 µM (inactive)	18 µM (inactive)	15.1 µM (inactive)	21.1 µM (inactive)	20.5 µM (inactive)	20 µM (inactive)	18 µM (inactive)	22 µM (inactive)	16.6 µM (inactive)	19.5 µM (inactive)	18.7 µM (inactive)	28.5 µM (inactive)
Cc1c(-c2ccccc2)c(-c2ccc(OCCN(C)C)cc2)n2ccccc12	10.9 µM (inactive)	4.38 µM (inactive)	5.41 µM (inactive)	1.87 µM (inactive)	12 µM (inactive)	13.9 µM (inactive)	7.76 µM (inactive)	11.2 µM (inactive)	2.51 µM (inactive)	15.2 µM (inactive)	14.8 µM (inactive)	13.2 µM (inactive)	15.8 µM (inactive)	12.1 µM (inactive)	3.72 µM (inactive)	13.2 µM (inactive)	1.69 µM (inactive)	1.84 µM (inactive)	13.8 µM (inactive)
CCOC(=O)c1cnccc1CC1(C#N)c2ccccc2C=CN1C(=O)c1ccccc1 (stereo unspecified)	25.5 µM (inactive)	6.17 µM (inactive)	13 µM (inactive)	15.3 µM (inactive)	31.6 µM (inactive)	34.4 µM (inactive)	37.3 µM (inactive)	27.2 µM (inactive)	23.4 µM (inactive)	43.9 µM (inactive)	96.4 µM (inactive)	37.5 µM (inactive)	26.1 µM (inactive)	29 µM (inactive)	40.3 µM (inactive)	27.7 µM (inactive)	30.3 µM (inactive)	6.93 µM (inactive)	16.2 µM (inactive)
CN(CCCCN(C)CCc1ccc(Cl)c(Cl)c1)CCCCN1CCCC1	0.75 µM (active)	1.91 µM (inactive)	0.977 µM (active)	0.902 µM (active)	2.05 µM (inactive)	1.65 µM (inactive)	0.745 µM (active)	1.6 µM (inactive)	1.48 µM (inactive)	2.26 µM (inactive)	1.72 µM (inactive)	1.61 µM (inactive)	2.18 µM (inactive)	1.98 µM (inactive)	< 0.0235 µM (active)	3.23 µM (inactive)	0.195 µM (active)	0.877 µM (active)	2.09 µM (inactive)
O=c1c2cc([N+](=O)[O-])ccc2n2n1CCCC2	> 100 µM (inactive)	> 100 µM (inactive)	> 100 µM (inactive)	> 100 µM (inactive)	> 100 µM (inactive)	> 100 µM (inactive)	> 100 µM (inactive)	> 100 µM (inactive)	> 100 µM (inactive)	> 100 µM (inactive)	> 100 µM (inactive)	24.2 µM (inactive)	> 100 µM (inactive)	> 100 µM (inactive)	> 100 µM (inactive)	> 100 µM (inactive)	> 100 µM (inactive)	> 100 µM (inactive)	> 100 µM (inactive)
CCOC1CN=C(Nc2cccc3ccccc23)S1 (stereo unspecified)	> 10 µM (inactive)	> 10 µM (inactive)	> 10 µM (inactive)	> 10 µM (inactive)	> 10 µM (inactive)	> 10 µM (inactive)	> 10 µM (inactive)	> 10 µM (inactive)	> 10 µM (inactive)	> 10 µM (inactive)	> 10 µM (inactive)	> 10 µM (inactive)	> 10 µM (inactive)	> 10 µM (inactive)	> 10 µM (inactive)	> 10 µM (inactive)	> 10 µM (inactive)	> 10 µM (inactive)	> 10 µM (inactive)
CC(=O)NC1C(OCc2ccccc2)OC(CO)C(O)C1OCC(=O)N1CCCC1C(=O)N[C@@H](CCC(=O)NCCNCCNc1c2ccccc2nc2cccc([N+](=O)[O-])c12)C(N)=O (stereo partly specified)	2.5 µM (inactive)	2.57 µM (inactive)	3.89 µM (inactive)	1.48 µM (inactive)	5.65 µM (inactive)	1.52 µM (inactive)	2.44 µM (inactive)	1.94 µM (inactive)	0.849 µM (active)	5.6 µM (inactive)	1.04 µM (active)	4.27 µM (inactive)	10.4 µM (inactive)	1.39 µM (inactive)	1.69 µM (inactive)	7.45 µM (inactive)	2.67 µM (inactive)	0.655 µM (active)	2.19 µM (inactive)
CCCCCCCCCCCCCCCCCCNc1nc(=O)n(C2CC(O)C(COP(=O)(O)O)O2)cc1F (stereo unspecified)	> 100 µM (inactive)	> 100 µM (inactive)	> 100 µM (inactive)	> 100 µM (inactive)	> 100 µM (inactive)	17.4 µM (inactive)	> 100 µM (inactive)	15 µM (inactive)	35.5 µM (inactive)	38.9 µM (inactive)	6.27 µM (inactive)	> 100 µM (inactive)	> 100 µM (inactive)	> 95.7 µM (inactive)	38 µM (inactive)	> 35.6 µM (inactive)	15 µM (inactive)	> 100 µM (inactive)	27.4 µM (inactive)

— ChEMBL document CHEMBL1201862, “PubChem BioAssay data set” (2004)
